Where a SMILES comes first, the peptide text is derived from it. Bridges are numbered along the chain shown (N, C = ends).
Target: T1, rGHBP (Rattus norvegicus, UniProt P16310)
T1 construct: 1–48 of GHBP; The 3′ oligo used for this reaction encoded the mutation L43R (CTG→AGA); The second PCR reaction amplified the DNA encoding amino acids 38–260; 6xHis; made in house
T1 sequence (P16310 19-278 isoform P16310-2): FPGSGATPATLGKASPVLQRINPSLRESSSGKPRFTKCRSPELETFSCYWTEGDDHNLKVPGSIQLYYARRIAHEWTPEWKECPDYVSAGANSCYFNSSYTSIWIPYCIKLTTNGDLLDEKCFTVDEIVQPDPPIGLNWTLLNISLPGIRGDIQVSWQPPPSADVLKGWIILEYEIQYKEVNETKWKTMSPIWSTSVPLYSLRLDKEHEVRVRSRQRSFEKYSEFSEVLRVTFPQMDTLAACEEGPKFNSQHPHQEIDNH
Assay: Time-resolved fluorometric detection (TRFD) of specific bLigand binding to rGHBP and its competition
Details: TRFD
Method: For this invention, saEu forms a ternary complex with bP and rGHBP (i.e., the rGHBP:bP:saEu complex). As described herein, the TRFD assay is performed using biotinylated GH (bGH) as bLigand. Biotinylated H5-mutant peptides bP#447 (SEQ ID NO:11) and bP#418 (SEQ ID NO:12) are also used as bLigand (see below). The TRFD assay described herein faithfully reports the competition of ligand binding to the active site of rGHR. To perform the TRFD assays, soluble rGHBP is attached to the surface of microtiter wells, then incubated with bP. Unbound bP is than washed away and (sa)Eu is added to complex with receptor bound bP. The rGHBP:bP bound (sa)Eu is then converted into its highly fluorescent state and detected by TRFD.
Wells were coated with rGHBP(100 ng/well) overnight as described. ED50 and IC50 were calculated from analysis of specific bLigand binding to rGHBP. Competitors were added 1 hr prior to addition of bLigand as described.
rGHBP (50–200 μg/ml in 50 mM NaHCO3) was coated onto low-fluorescence MaxiSorp (Nunc) plates (100 μl/well) overnight at 4° C. The plates were blocked with PBS containing 2% non-fat milk and 0.05% BSA for 2 hr at room temperature, followed by three PBS washes. For competitions, serial dilutions of unlabelled growth hormone (0.1 nM-100 nM) or MAb 2C3 (0.67–67 nM) were added to the plates (100 μl/well) and incubated at room temperature for 1–2 hr. Biotinylated peptide or biotinylated GH (10× concentrations) were incubated in blocking buffer for 30 min to decrease non-specific binding. Ten microliters of the 10× concentrated material was added to the plates and incubated at room temperature for 1 hr to overnight.
The plates were then washed five times with Tris-buffered saline (pH 7.5) containing 0.1% Tween-20 (TTBS). To each well, 100 μl of europium-labeled streptavidin in DELFIA assay buffer (100 mM Tris-HCl, pH 7.8; 150 mM NaCl; 0.5% BSA; 0.05% bovine Ig; 0.05% NaN3; 0.01% Tween-20) was added and incubated for 1.5 hr at room temperature. The plates were then washed five times with TTBS and tapped dry. Subsequently, 100 μl of DELFIA enhancement solution (100 mM acetone-potassium hydrogen phthalate, pH 3.2; 15 mM 2-naphtyltrifluoroacetate; […] tri(n-octyl)-phosphine oxide; 0.1% Triton X-100) was added to each well, and the plates were shaken for 10 min at room temperature. Fluorescence of each sample well was measured at 615 nm using a DELFIA 1234 fluorometer (EG&G Wallac). General procedure and references as described by Wallac are available in “Lanthanide labeling for time-resolved fluorometry”: Wallac publication 1244–1126-03.

saturation of receptors: could not be saturated
SMILES: CC(C)C[C@@H]1NC(=O)[C@H](CO)NC(=O)[C@H](CCC(N)=O)NC(=O)[C@@H](NC(=O)[C@H](CC(C)C)NC(=O)[C@H](CC(=O)O)NC(=O)[C@H](CCCCN)NC(=O)[C@H](Cc2ccc(O)cc2)NC(=O)[C@@H](N)CC(=O)O)CSSC[C@@H](C(=O)N[C@@H](C)C(=O)N[C@@H](CCCCN)C(=O)N[C@@H](CCCCN)C(=O)O)NC(=O)[C@H](Cc2c[nH]c3ccccc23)NC(=O)CNC(=O)[C@H](C)NC(=O)[C@H](CC(C)C)NC(=O)[C@H](Cc2c[nH]c3ccccc23)NC(=O)CNC(=O)[C@@H]2CCCN2C(=O)[C@H](Cc2ccc(O)cc2)NC(=O)[C@H]([C@@H](C)O)NC(=O)[C@H](C(C)C)NC(=O)CNC1=O [H5] (H-DYKDLCQSLGVTYPGWLAGWCAKK-OH; disulfide 6-21; N-terminus and C-terminus assumed)
